Source: patent US6908944B2, “Use of 6-dimethylaminomethyl-1-phenyl-cyclohexane compounds for treatment of urinary incontinence” (Gruenenthal GmbH, priority 2000, dated 2005)

System: spontaneous contractions of the bladder
Test: Cystometry on anaesthetized naive rats (suppression of rhythmic spontaneous bladder contractions)
Format: in vivo, rat
Settings: anaesthetized ventilated naive female rats; i.v., cumulative administration; mean of 3 experiments
Protocol: The cystometric investigation of naive female rats was carried out by the method of Kimura et al. (Kimura et al., 1996, Int. J. Urol. 3:218-227). The abdomen of anaesthetized ventilated rats is opened up and the ureter is tied off. The urine is drained from the kidneys. A catheter is inserted into the bladder and fixed. […] After stable starting values are reached, the test substance is administered i.v. in a cumulative manner. An influence on bladder function manifests itself via suppression of spontaneous contractions. The absence of contractions over a period of 10 min is the parameter for the suppression.
A suppression of spontaneous contractions in rats was measurable with all the substances tested.

SMILES	Lowest dose (mean of the lowest dose at which for the first time contractions are absent over a period of 10 min)
COc1cccc(C2(O)CCCCC2CN(C)C)c1 (racemic) [Compound 23, rac-Tramadol, reference compound]	5.3 (n = 3) mg/kg
CN(C)C[C@H]1CCCC[C@]1(F)c1cccc(O)c1.Cl [Compound 18, (+)-(1R,2R)-3-(2-Dimethylaminomethyl-1-fluoro-cyclohexyl)-phenol, hydrochloride]	0.2 (n = 3) mg/kg
CN(C)C[C@H]1CCCC[C@@H]1c1cccc(O)c1.Cl [Compound 19, (+)-(1S,2S)-3-(2-Dimethylaminomethyl-cyclohexyl)-phenol, hydrochloride]	0.1 (n = 3) mg/kg
CN(C)C[C@@H]1CCCC[C@H]1c1cccc(O)c1.Cl [Compound 20, (−)-(1R,2R)-3-(2-Dimethylaminomethyl-cyclohexyl)-phenol, hydrochloride]	0.5 (n = 3) mg/kg
